We go through 9 compounds from PMC7114351 (Antiviral Research, 2008).

Where “and” joins values, the source holds several entries; their conditions need not be identical. Equal entries are not always repeated. Entries after “also recorded” stand apart in the source; their conditions may differ. Where two headings read alike, the source gives them in different places.

One series concerns L929 cells. Description: Cytotoxicity, MTT assay. The class given is cell-based, mouse.
Another series relates to WT VACV (WR). The experiment in a line: microbe, parasite or virus in culture. The class given is cell-based. To be noted: Orthopoxvirus vaccinia; for IC50: read-out: Titer IC50 ± SD; for IC90: read-out: Titer IC90 ± SD.
The subject of series [1] is cell lines of the antiviral assays. Description: Cytotoxicity in conditions of the antiviral assays. To be noted: up to 1 mM; higher cell density, 2% serum, 24 h incubation.
The next series relates to WT VACV. The class given is cell-based, vaccinia virus.
Another series deals with VACV proteins. The class given is cell-based, vaccinia virus.
Series [2] has as its system VACV late promoter p4b (Luc L). The class given is cell-based, vaccinia virus.
A further series concerns VACV. The class given is cell-based, vaccinia virus.
Series [3] in a line: Cytotoxicity, MTT assay. The class given is cell-based. To be noted: human, Jurkat cells.
In series [4] the test system is luciferase expressed by Luc E/L or Luc L. The class given is cell-based, vaccinia virus.
Series [5] has as its system recombinant VACV expressing luciferase. The experiment in a line: microbe, parasite or virus in culture. As to conditions: for IC50: Orthopoxvirus vaccinia, read-out: Luc IC50 ± SD. The class given is cell-based, vaccinia virus.
Another series relates to HeLa G cells. The experiment in a line: Cytotoxicity, MTT assay. The class given is cell-based, human.
Series [6] deals with VACV early/late promoter p7.5 (Luc E/L). The class given is cell-based, vaccinia virus.
For the next series, the system named is BSC-40 cells. Description: Cytotoxicity, MTT assay. The class given is cell-based, African green monkey.
A further series has as its system recombinant VACV. The experiment in a line: microbe, parasite or virus in culture. The class given is cell-based, vaccinia virus. As to conditions: for IC50 / IC90: Orthopoxvirus vaccinia; for IC50: read-out: Titer IC50 ± SD; for IC90: read-out: Titer IC90 ± SD.
Another series concerns VACV genomic DNA. The class given is cell-based, vaccinia virus.
A short description of series [7]: Cytotoxicity, MTT assay. The class given is cell-based, mouse. As to conditions: mouse, L929 cells.
The nature of series [8]: Cytotoxicity, MTT assay. The class given is cell-based, human. As to conditions: human, HeLa G cells.
Series [9] can be described thus: Cytotoxicity, MTT assay. The class given is cell-based, African green monkey. As to conditions: African green monkey, BSC-40 cells.
The next series has as its system VACV (strain WR). To be noted: HFF cells, ref Quenelle et al., 2007; cited from earlier work.
The next series has as its system VACVs (strain WR). To be noted: two different VACVs (strain WR), ref Becker et al., 2008, cited from earlier work.

Take `O=C(O)CCCCC1CCSS1` (stereo not drawn) [Lipoic acid, α-lipoic acid]: the 50% cytotoxic concentration (CC50) entry with L929 cells (MTT, 2 days of incubation) is on record as “Growth promotion”; with HeLa G cells (MTT, 2 days of incubation), “Growth promotion”; with BSC-40 cells (MTT, 2 days of incubation), “Growth promotion”. Also, the “inhibition of cell growth, MTT” value with L929 cells (up to 2 mM), in the series on HeLa G cells (up to 2 mM) and in the series on BSC-40 cells (up to 2 mM) was “not found to inhibit growth” in each case. For the same compound, the IC50 in the series with WT VACV (WR) (24 h) worked out at 587 ± 296 µM; in the series on WT VACV (WR) (BSC-40, 24 h) it was 712 ± 444 µM; in the series with WT VACV (WR) (HeLa, 24 h) it was 803 ± 273 µM; in the series with WT VACV (WR) (Jurkat, 24 h), 492 ± 92 µM; in the series with WT VACV (WR) (L929, 24 h), 702 ± 16 µM; in series [5] (24 h), 305 ± 12 µM. The 50% inhibitory concentration (IC50) was found to be 642 ± 4 µM in series [5] (BSC-40, 24 h); 838 ± 159 µM in [5] (HeLa, 24 h); 747 ± 199 µM in series [5] (L929, 24 h); 409 ± 8 µM in the series on recombinant VACV (BSC-40, 24 h); 220 ± 14 µM in the series with recombinant VACV (HeLa, 24 h); 354 ± 52 µM with recombinant VACV (Jurkat, 24 h). The IC50 with recombinant VACV (L929, 24 h) came out at 245 ± 18 µM. For the same compound, the “cytotoxicity in conditions of the antiviral assays” value in series [1] is given as “neither EA nor LA induced any obvious cytotoxicity”. For the same compound, the size of plaques entry with WT VACV is on record as “reduced the size of plaques”. Besides, the “VACV protein levels, western blot” value in the series with VACV proteins is recorded as “did not induce any major changes; also recorded: decreased the protein expression slightly”. Besides, the “effect on activity of Luc L” value in [2] is given as “dose-dependent inhibitory effect”. Also, in series [2], the “effect on activity of luciferase expressed by Luc L” value is “neither EA nor LA affected this result”. In addition, the “effect of pre-treatment on luciferase activity and virus titers (VACV entry)” value with VACV was “not found to cause any differences”. Also, the CC50 at 2 days in the series “Cytotoxicity, MTT assay [3]” was above 2000 µM. Also, the “protein levels of luciferase, western blot” value in series [4] is given as “gradual decrease”. In [6], the “effect on activity of Luc E/L” value is “dose-dependent inhibitory effect”. Besides, the “effect on activity of luciferase expressed by Luc E/L (early gene expression)” value in series [6] was “neither EA nor LA further decreased this measurable activity of luciferase”. Also, in the series on VACV genomic DNA, the “levels of VACV genomic DNA” value was “not changed”.
`OCCS` [β-mercapthoethanol, β-mercaptoethanol]: the “luciferase activity, % of the mock-treated controls” value (from here on “luciferase activity, %”) in series [5] was found to be 150%.
On to `C=C(CC)C(=O)c1ccc(OCC(=O)O)c(Cl)c1Cl` [Ethacrynic acid, ethacrynic acid], for which the CC50 at 2 days is 224 µM in the series “Cytotoxicity, MTT assay [7]”; 35 µM in “Cytotoxicity, MTT assay [3]”; 128 µM in the series “Cytotoxicity, MTT assay [8]”; 292 µM in the series “Cytotoxicity, MTT assay [9]”. The IC50 was determined as 9.5 ± 2.6 µM in the series with WT VACV (WR) (24 h); 9.2 ± 1 µM with WT VACV (WR) (BSC-40, 24 h); 13.8 ± 4.7 µM in the series with WT VACV (WR) (Jurkat, 24 h); 19.3 ± 3.9 µM with WT VACV (WR) (L929, 24 h); 18.3 ± 3.7 µM in [5] (24 h); 35.3 ± 7 µM in series [5] (BSC-40, 24 h). Moreover, the concentration for half-maximal inhibition (IC50) came out at 2.6 ± 0.6 µM in series [5] (HeLa, 24 h); 26.5 ± 1.9 µM in [5] (L929, 24 h); 12.2 ± 0.3 µM in the series on recombinant VACV (24 h); 11.9 ± 0.5 µM in the series on recombinant VACV (BSC-40, 24 h); 1.6 ± 0.1 µM in the series with recombinant VACV (HeLa, 24 h); 9.5 ± 2.4 µM in the series on recombinant VACV (Jurkat, 24 h). Moreover, the IC50 in the series on recombinant VACV (L929, 24 h) is 19.8 ± 2.4 µM. In addition, the IC90 with WT VACV (WR) (24 h) came out at 47.8 ± 7.9 µM; in the series on WT VACV (WR) (BSC-40, 24 h), 29.4 ± 1 µM; in the series on WT VACV (WR) (HeLa, 24 h), 18.8 ± 0.6 µM; with WT VACV (WR) (Jurkat, 24 h), 42.9 ± 13.4 µM; with WT VACV (WR) (L929, 24 h), 61.3 ± 16.3 µM; with recombinant VACV (24 h), 40.9 ± 1.4 µM. For the same compound, the concentration for an effect of 90% (IC90) came to 30.9 ± 0.8 µM with recombinant VACV (BSC-40, 24 h); 5.4 ± 0.3 µM with recombinant VACV (HeLa, 24 h); 30.9 ± 10 µM in the series with recombinant VACV (Jurkat, 24 h); 80.2 ± 30.9 µM with recombinant VACV (L929, 24 h). Also, in the series with WT VACV, the number of plaques result is “reduced the number of plaques”. For the same compound, the “VACV protein levels, western blot” value in the series with VACV proteins is reported as “did not seem to decrease protein levels”. Further, in the series with recombinant VACV, the “inhibition of VACV growth” value was 1 logs and 2 logs. Moreover, the “levels of VACV genomic DNA” value with VACV genomic DNA is listed as “not changed”.
On to `CCCCCCCCCCCCCCCCOCCCOP(=O)(O)CO[C@H](CO)Cn1ccc(N)nc1=O` [CMX001], for which the IC50 in the series on VACV (strain WR) was 0.13 µM.
Consider `Nc1ccn([C@@H]2O[C@H](CO)[C@@H](O)[C@@H]2O)c(=O)n1` [AraC, cytosine arabinoside], for which the “activity of luciferase expressed by Luc L, % of the mock-treated controls grown in the absence of AraC” value in series [2] is recorded as at most 0.05%.
In the case of `O=C1O[C@H]([C@@H](O)CO)C(O)=C1O` [L-ascorbic acid, L-Ascorbic acid], the “luciferase activity, %” value in [5] came out at 120%.
Regarding `O=C(NN1C(=O)[C@@H]2[C@@H]3C=C[C@@H]([C@H]4C[C@@H]34)[C@@H]2C1=O)c1ccc(C(F)(F)F)cc1` [ST-246], in the series with VACV (strain WR), the IC50 is 0.1 µM.
In the case of `Nc1ccn(C[C@@H](CO)OCP(=O)(O)O)c(=O)n1` [cidofovir], the concentration for half-maximal inhibition (IC50) with VACVs (strain WR) (BSC-40 cells) was below 50 µM; with VACVs (strain WR) (Vero cells) it was 54 µM and 62 µM; with VACV (strain WR), 33 µM.
With `O[C@@H](CS)[C@@H](O)CS` (racemic) [dithiothreitol], in [5], the “luciferase activity, %” value was determined as 140%.
